Measurements reported in US11549134B2, “Modified amadoriase and method for producing the same, agent for improving surfactant resistance of amadoriase and composition for measuring HbA1c using the same” (Kikkoman Corporation, priority 2013, dated 2023).

B1: PnFX: fructosyl peptide oxidase derived from Phaeosphaeria nodorum, SEQ ID NO: 40 (protein, listed as Phaeosphaeria nodorum)
chain: MAPSRANTSVIVVGGGGTIGSSTALHLVRSGYTPSNVTVLDAYPIPSSQSAGNDLNKIMGVSLRNPVDLQLALEARQMWNEDELFKKFFHNTGRLDCAHGEKDIADLKSGYQALVDAGLDATNEWLDSEDEILKRMPLLSRDQIKGWKAIFSKDGGWLAAAKAINAVGEYLRDQGVRFGFYGAGSFKAPLLAEGVCIGVETVDGTRYYADKVVLAAGAWSPTLVELHEQCVSKAWVYGHIQLTPEEAARYKNSPVVYNGDVGFFFEPNEHGVIKVCDEFPGFTRFKMHQPFGAKAPKRISVPRSHAKHPTDTIPDASDVSIRRAIATFMPQFKNKKMFNQAMCWCTDTADAALLICEHPEWKNFVLATGDSGHSFKLLPNIGKHVVELLEGTLADDLAHAWRWRPGSGDALKSRRSAPAKDLADMPGWNHDKPRANL

Legend:
[1] = test system: CFP-T7; assay: Surfactant resistance of amadoriase during addition of each stabilizer (CFP-T7); type: biochemical, genus Coniochaeta; conditions: 500 mM HEPES (pH 7.0), 0.01% CTAC
Description: (§1) In the above surfactant resistance measuring method, various stabilizers are added and the residual activity of an amadoriase is measured in order to evaluate the effect of the stabilizers. […] The concentration sufficient to provide a buffer capacity to a solution refers to the concentration at which pH is maintained within a predetermined range (for example pH5 to 10, pH6 to 8) without having pH change due to other reagents added to the solution. A concentration insufficient to provide a buffer capacity to a solution refers to the concentration at which pH changes by addition of other reagents to the solution and pH falls outside a particular range. These concentrations vary depending upon the type and amount of other reagents to be added to a solution; however, a person skilled in the art can appropriately determine the concentration by conventional methods. Other conditions and procedure can be the same as in the above surfactant resistance measuring method.
(§2) It was studied whether or not the addition of any of various stabilizers enhanced the surfactant resistance of an amadoriase. Phosphoric acid, a tricarboxylic acid (e.g., citric acid), a dicarboxylic acid (e.g., malic acid, maleic acid, citraconic acid, malonic acid, glutaric acid, or tartaric acid), a monpcarboxylic acid (e.g., acetic acid), MES, MOPS, MOPSO, or ammonium sulfate was used as a stabilizer. As a Comparative Example, CHES was used. To prevent change in pH when adding the stabilizer, 500 mM HEPES (pH 7.0) was used as a buffer solution; CFP-T7 purified as described above was used as a sample; the final concentration of CTAC was set at 0.01%; and any of the stabilizers was further added to evaluate the surfactant resistance of CFP-T7 according to the measurement method for surfactant resistance in Example 1. Using a 500 mM HEPES (pH 7.0) buffering agent and CFP-D2 purified as described above as a sample, any of the stabilizers was further added, and the surfactant resistance of CFP-D2 was evaluated according to the measurement method for surfactant resistance in Example 1 although under more harsh surfactant treatment conditions in which the final concentration of CTAC was set at 0.08% and the treatment temperature at 37° C.

[2] = test system: CFP-D2; assay: Surfactant resistance of amadoriase during addition of each stabilizer (CFP-D2); type: biochemical, genus Coniochaeta; conditions: 500 mM HEPES (pH 7.0), 0.08% CTAC, 37°C
Description: as §1
as §2, with “To prevent change in pH when adding the stabilizer, 500 mM HEPES (pH 7.0) was used as a buffer solution; CFP-T7 purified as described above was used as a sample; the final concentration of CTAC was set at 0.01%; and any of the stabilizers was further added to evaluate the surfactant resistance of CFP-T7 according to the measurement method for surfactant resistance in Example 1.” left out

[3] = test system: PnFX; assay: Surfactant resistance of PnFX during addition of each stabilizer; type: biochemical, Phaeosphaeria nodorum; conditions: 300 mM HEPES (pH 7.0), 0.04% CTAC
Description: The same stabilizers as those described above were used as stabilizers; 300 mM HEPES (pH 7.0) was used as a buffering agent to prevent a change in pH when the stabilizers was each added; PnFX purified as described above was used as a sample; the final concentration of CTAC was set at 0.04%; and the surfactant resistance of PnFX was evaluated as described above.

[4] = test system: CFP-T7; assay: Surfactant resistance of amadoriase in presence of buffering agents; type: biochemical, genus Coniochaeta; conditions: for CFP-T7 Residual Activity (%): 0.01% CTAC, purified CFP-T7
Description: In the above surfactant resistance measuring method, the residual activity of an amadoriase is measured by using various buffers in place of a 30 mM MES/21 mM Tris buffer solution. In this manner, the contribution of the buffer to the amadoriase residual activity can be evaluated. For example, in place of the 30 mM MES/21 mM Tris buffer solution (pH 6.5), e.g., a phosphate buffer solution (pH 7.0), a citrate buffer solution (pH 6.0), a HEPES buffer solution (pH 7.0) or an ACES buffer solution (pH 7.0) can be used. Other conditions and procedure can be the same as in the above surfactant resistance measuring method.
It was studied whether the surfactant resistance of an amadoriase is enhanced or not when a buffering agent other than a 30 mM MES/21 mM Tris buffering agent (pH 6.5) was used. Using CFP-T7 purified as described above as a sample, the final concentration of CTAC was set at 0.01% to evaluate the surfactant resistance of CFP-T7 according to the measurement method for surfactant resistance in Example 1 in the presence of any of various buffering agents, specifically a phosphate buffering agent containing phosphoric acid and potassium phosphate (pH 7.0), a citrate buffering agent containing citric acid and sodium citrate (pH 6.0), an MES buffering agent containing MES and it sodium salt (pH 7.0), an HEPES buffering agent containing HEPES and its sodium salt (pH 7.0), and an ACES buffering agent containing ACES and its sodium salt (pH 7.0), in place of the 30 mM MES/21 mM Tris buffering agent (pH 6.5).

[5] = Measurement of fructosyl peptide sample (αFVH) under mixing of CTAC, change in absorbance at 751 nm; type: biochemical; conditions: for Amount of Change in Absorbance at Wavelength of 751 nm under Mixing of Each Concentration of CTAC: as in Example 5, Table 7
Description: The purified enzyme of CFP-T7 and CFP-D7 obtained in Example 3-2 was used to measure a sample as shown below. The activity values of CFP-T7 and CFP-D7 were determined using (reagent 1) adjusted to pH 7.0 with αFVH at a final concentration of 5 mM as a substrate according to the method for measuring amadoriase activity.
(Reagent 4) αFVH (125 mg) was dissolved in ion-exchanged water, the volume of the solution was fixed to 10 ml, and thereby a 30 mM substrate solution was obtained. In addition, the resultant was diluted by 1/714 with a CTAC solution to provide a 42 μM αFVH/0% to 0.2% CTAC solution.
(Reagent 6) (50 μl) was added to a mixed solution of 135 μl of (reagent 5) warmed at 37° C. for 5 minutes in advance and 25 μl of the sample prepared in (11) above to start reaction, and absorbance at a wavelength of 751 nm after reaction at 37° C. for 5 minutes was measured using an automated analyzer, Bio Majesty JCA-BM1650 (from JEOL Ltd.). Absorbance (reagent blank) at a wavelength of 751 nm measured by a similar operation for (reagent 4) prepared using ion-exchanged water in place of the substrate solution was used as a control to calculate the amount of change in absorbance (difference) when each sample was measured, using the following equation. The final concentration of a colorimetric substrate, DA-64, was 0.15 mM; the final concentration of αFVH in the case of the presence of a substrate was 5 μM; and the length (optical path) of the cell used for absorbance measurement was 1 cm. Amount of change in absorbance=ΔAes−Ae0
The amount of change in absorbance when αFVH/0% to 0.2% CTAC were used as samples was calculated.
The purified preparations of amadoriases obtained as described above were used as samples to measure αFVH under the mixing of CTAC using PnFX and NvFX as in Example 5.

[6] = Buffer Solution 50 mM, pH 7.0 (citrate pH 6.0)
[7] = Buffer Solution 100 mM, pH 7.0 (citrate pH 6.0)

| Molecule | CFP-T7 Residual Activity (%) ([1]; Stabilizer 2 mM, Table 9-1) | CFP-T7 Residual Activity (%) ([1]; Stabilizer 5 mM, Table 9-1) | CFP-T7 Residual Activity (%) ([1]; Stabilizer 10 mM, Table 9-1) | CFP-D2 Residual Activity (%) ([2]; Stabilizer 5 mM) | PnFX Residual Activity (%) ([3]; Stabilizer 5 mM) | CFP-T7 Residual Activity (%) ([1]; Stabilizer 20 mM, Table 9-1) | CFP-T7 Residual Activity (%) [4, 6] | CFP-T7 Residual Activity (%) [4, 7] | CFP-T7 Residual Activity (%) ([4]; Buffer Solution 150 mM, pH 7.0) | CFP-T7 Residual Activity (%) ([4]; Buffer Solution 300 mM, pH 7.0) | other results |
| --- | --- | --- | --- | --- | --- | --- | --- | --- | --- | --- | --- |
| O=C(O)CC(O)C(=O)O (stereo not drawn) [Malate, malic acid] | 12.6% | 35.4% | 74.3% | 59.2% | 60.4% | – | – | – | – | – | – |
| O=S(=O)(O)CCCN1CCOCC1 [MOPS, 3-(N-morpholino)propanesulfonic acid] | – | – | – | – | – | – | – | – | – | – | CFP-T7 Residual Activity (%) ([1]; Stabilizer 10 mM, Table 9-2): 6.5%; CFP-T7 Residual Activity (%) ([1]; Stabilizer 20 mM, Table 9-2): 20.6%; CFP-D2 Residual Activity (%) ([2]; Stabilizer 20 mM): 42.4% |
| O=P(O)(O)O [Phosphate, phosphoric acid] | 28.1% | 61.6% | 76.8% | 72.8% | 37.5% | 98.6% | 27.2% | 68.3% | 88.5% | 98.4% | CFP-T7 Residual Activity (%) ([1]; Stabilizer 50 mM, Table 9-1): 100.0%; CFP-T7 Residual Activity (%) ([4]; Buffer Solution 20 mM, pH 7.0 (citrate pH 6.0)): 15.1% |
| O=C(O)CC(O)(CC(=O)O)C(=O)O [Citrate, citric acid] | 87.6% | – | – | – | – | – | 108.2% | 105.7% | – | – | CFP-T7 Residual Activity (%) ([1]; Stabilizer 0.2 mM, Table 9-1): 12.2%; CFP-T7 Residual Activity (%) ([1]; Stabilizer 0.5 mM, Table 9-1): 30.7%; CFP-T7 Residual Activity (%) ([4]; Buffer Solution 10 mM, pH 7.0 (citrate pH 6.0)): 104.1%; amadoriase stabilizing effect of the buffer (in words) ([4]; CFP-T7 in the presence of surfactant): inactivation due to the surfactant did not occur even at 10 mM; PnFX Residual Activity (%) ([3]; Stabilizer 0.5 mM): 47.3% |
| O=S(=O)(O)CCN1CCOCC1 [MES, 2-(N-morpholino)ethanesulfonic acid] | – | – | 19.5% | – | – | 54.1% | 14.3% | 17.6% | 62.9% | 95.8% | CFP-T7 Residual Activity (%) ([1]; Stabilizer 40 mM, Table 9-1): 103.0%; PnFX Residual Activity (%) ([3]; Stabilizer 20 mM): 89.6% |
| B1 | – | – | – | – | – | – | – | – | – | – | measurement of αFVH under the mixing of CTAC (in words) [5]: capable of measuring αFVH as a substrate under the mixing of CTAC at a concentration as high as 0.02% or more; Amount of Change in Absorbance at Wavelength of 751 nm under Mixing of Each Concentration of CTAC ([5]; Mixing of CTAC 0%): 0.173; Amount of Change in Absorbance at Wavelength of 751 nm under Mixing of Each Concentration of CTAC ([5]; Mixing of CTAC 0.01%): 0.115; Amount of Change in Absorbance at Wavelength of 751 nm under Mixing of Each Concentration of CTAC ([5]; Mixing of CTAC 0.02%): 0.084; Amount of Change in Absorbance at Wavelength of 751 nm under Mixing of Each Concentration of CTAC ([5]; Mixing of CTAC 0.04%): 0.026; Amount of Change in Absorbance at Wavelength of 751 nm under Mixing of Each Concentration of CTAC ([5]; Mixing of CTAC 0.06%): 0.008; Amount of Change in Absorbance at Wavelength of 751 nm under Mixing of Each Concentration of CTAC ([5]; Mixing of CTAC 0.1%): 0.003; Amount of Change in Absorbance at Wavelength of 751 nm under Mixing of Each Concentration of CTAC ([5]; Mixing of CTAC 0.2%): 0.001; PnFX Residual Activity (%) ([3]; Stabilizer None): 27.9% |
